Source: ChEMBL document CHEMBL1136001, “Azapeptides structurally based upon inhibitory sites of cystatins as potent and selective inhibitors of cysteine proteases” (J Med Chem, 2002)
Active and inactive are the calls of the source. The calls are words filed in the database; no cut-off is given here. Non-standard residues stand in square brackets, D forms with d. Residues, ends and D or L forms follow the SMILES beside them. *: point of attachment. 1Nal = N[C@@H](Cc1cccc2ccccc12)C(=O)O; Cbz = O=C(OCc1ccccc1)*; NHBn = c1ccc(CN*)cc1; OBn = c1ccc(CO*)cc1; azaGly = NNC(=O)O

Tests used:
Papain = biological target: T1, Papain (Carica papaya, UniProt P00784); assay: In vitro inhibition of papain.
T1 sequence (P00784 whole entry): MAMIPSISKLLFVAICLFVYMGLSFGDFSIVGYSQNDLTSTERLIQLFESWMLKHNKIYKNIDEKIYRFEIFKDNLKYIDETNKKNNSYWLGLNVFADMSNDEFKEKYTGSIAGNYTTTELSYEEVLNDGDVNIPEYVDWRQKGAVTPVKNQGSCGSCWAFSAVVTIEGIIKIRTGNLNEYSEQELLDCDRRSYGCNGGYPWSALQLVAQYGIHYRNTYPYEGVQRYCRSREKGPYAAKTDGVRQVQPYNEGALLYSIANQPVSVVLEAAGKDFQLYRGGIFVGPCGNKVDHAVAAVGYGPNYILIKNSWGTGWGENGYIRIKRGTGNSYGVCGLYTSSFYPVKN

Cathepsin K = biological target: T2, Cathepsin K (Homo sapiens, UniProt P43235); assay: Inhibition of Human Cathepsin K
T2 sequence (P43235 whole entry): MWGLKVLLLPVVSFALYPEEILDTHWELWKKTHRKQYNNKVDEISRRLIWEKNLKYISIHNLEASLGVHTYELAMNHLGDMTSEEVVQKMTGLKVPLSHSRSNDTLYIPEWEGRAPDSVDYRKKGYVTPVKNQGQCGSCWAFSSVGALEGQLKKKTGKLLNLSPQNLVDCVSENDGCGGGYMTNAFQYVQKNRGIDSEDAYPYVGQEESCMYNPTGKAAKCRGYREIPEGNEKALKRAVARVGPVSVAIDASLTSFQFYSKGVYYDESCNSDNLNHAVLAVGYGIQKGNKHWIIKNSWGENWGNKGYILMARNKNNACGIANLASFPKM

Papain (Carica papaya) = biological target: T3, Papain (Carica papaya) (UniProt P00784); assay: Evaluated for inhibitory activity against papain; No inhibition
T3 sequence (whole entry): T1 sequence (P00784 whole entry)

Cathepsin B = Cathepsin B (Homo sapiens, UniProt P07858); assay: Inhibition of Human Cathepsin B

Ki (Papain) | Ki (Cathepsin K) | NA (Papain (Carica papaya)) | NI (Papain (Carica papaya)) | Ki (Cathepsin B) | SMILES
61 nM |  |  |  |  | COC(=O)[C@@H](NC(=O)NNC(=O)[C@H](Cc1ccccc1)NC(C)=O)C(C)C
59 nM |  |  |  |  | CCCCOC(=O)[C@@H](NC(=O)NNC(=O)[C@H](Cc1ccccc1)NC(C)=O)C(C)C
30 nM |  |  |  |  | CC(=O)N[C@@H](Cc1ccccc1)C(=O)NNC(=O)N[C@H](C(=O)NCc1ccccc1)C(C)C
28 nM |  |  |  |  | CCCCNC(=O)[C@@H](NC(=O)NNC(=O)[C@H](Cc1ccccc1)NC(C)=O)C(C)C
21 nM |  |  |  |  | CC(=O)N[C@@H](Cc1ccccc1)C(=O)NNC(=O)N[C@H](C(=O)OCc1ccccc1)C(C)C
20 nM |  |  |  |  | CCOC(=O)[C@@H](NC(=O)NNC(=O)[C@H](Cc1ccccc1)NC(C)=O)C(C)C
32 nM |  |  |  |  | CNC(=O)[C@@H](NC(=O)NNC(=O)[C@H](Cc1ccccc1)NC(C)=O)C(C)C
24 nM | 61 nM |  |  |  | CCOC(=O)NNC(=O)[C@@H](NC(=O)[C@H](CC(C)C)NC(=O)OC(C)(C)C)C(C)C
 |  | inactive |  |  | CC(=O)N[C@@H](Cc1ccccc1)C(=O)NNC(=O)N[C@H](C(=O)O)C(C)C
 |  |  | inactive |  | CC(C)C(NC(=O)NNC(=O)OC(C)(C)C)C(=O)OCc1ccccc1 (stereo not given)
0.12 nM | 0.18 nM |  |  | 0.13 nM | CC[C@H](C)[C@H](NC(=O)NNC(=O)[C@H](Cc1ccccc1)NC(=O)[C@H](CC(C)C)NC(=O)[C@H](C)NC(=O)OCc1ccccc1)C(=O)N[C@H](C(=O)OC)C(C)C (Cbz-ALF[azaGly]IV-OMe)
0.58 nM | 0.86 nM |  |  | 0.03 nM | CC[C@H](C)[C@H](NC(=O)NNC(=O)[C@H](Cc1cnc[nH]1)NC(=O)[C@H](CC(C)C)NC(=O)[C@H](C)NC(=O)OCc1ccccc1)C(=O)N[C@H](C(=O)OC)C(C)C (Cbz-ALH[azaGly]IV-OMe)
1.35 nM | 2.45 nM |  |  | 0.25 nM | CC[C@H](C)[C@H](NC(=O)NNC(=O)[C@@H](NC(=O)[C@H](CC(C)C)NC(=O)[C@H](C)NC(=O)OCc1ccccc1)[C@@H](C)CC)C(=O)N[C@H](C(=O)NCc1ccccc1)C(C)C (Cbz-ALI[azaGly]IV-NHBn)
0.95 nM | 2.12 nM |  |  | 0.3 nM | CC[C@H](C)[C@H](NC(=O)NNC(=O)[C@@H](NC(=O)[C@H](CC(C)C)NC(=O)[C@H](C)NC(=O)OCc1ccccc1)[C@@H](C)CC)C(=O)N[C@H](C(=O)OC)C(C)C (Cbz-ALI[azaGly]IV-OMe)
0.28 nM | 8.42 nM |  |  | 1.41 nM | CC[C@H](C)[C@H](NC(=O)NNC(=O)[C@H](Cc1ccc(OC)cc1)NC(=O)[C@H](CC(C)C)NC(=O)[C@H](C)NC(=O)OCc1ccccc1)C(=O)N[C@H](C(=O)OC)C(C)C (Cbz-ALY(Me)[azaGly]IV-OMe)
0.1 nM | 5.75 nM |  |  | 1.58 nM | CC[C@H](C)[C@H](NC(=O)NNC(=O)[C@H](Cc1cccc2ccccc12)NC(=O)[C@H](CC(C)C)NC(=O)[C@H](C)NC(=O)OCc1ccccc1)C(=O)N[C@H](C(=O)OC)C(C)C (Cbz-AL[1Nal][azaGly]IV-OMe)
 |  |  | inactive |  | CC(C)C[C@H](NC(=O)OCc1ccccc1)C(=O)N[C@@H](Cc1ccccc1)C(=O)NNC(=O)N[C@H](C(=O)OCc1ccccc1)C(C)C (Cbz-LF[azaGly]V-OBn)
6.7 nM | 34 nM |  |  | 40 nM | CC(C)C[C@H](NC(=O)OCc1ccccc1)C(=O)N[C@H](C(=O)NNC(=O)N[C@H](C(=O)OCc1ccccc1)C(C)C)C(C)C (Cbz-LV[azaGly]V-OBn)
 |  |  | inactive |  | CC(C)C[C@H](NC(=O)[C@H](CCCN=C(N)N)NC(=O)OCc1ccccc1)C(=O)N[C@@H](Cc1ccccc1)C(=O)NNC(=O)N[C@H](C(=O)OCc1ccccc1)C(C)C (Cbz-RLF[azaGly]V-OBn)
0.77 nM | 21 nM |  |  | 0.088 nM | CC[C@H](C)[C@H](NC(=O)NNC(=O)[C@@H](NC(=O)[C@H](CC(C)C)NC(=O)[C@H](CCCN=C(N)N)NC(=O)OCc1ccccc1)C(C)C)C(=O)N[C@H](C(=O)OC)C(C)C (Cbz-RLV[azaGly]IV-OMe)
0.78 nM | 6.76 nM |  |  | 7.29 nM | CC(C)C[C@H](NC(=O)[C@H](CCCNC(=N)N)NC(=O)OCc1ccccc1)C(=O)N[C@H](C(=O)NNC(=O)N[C@@H](C)C(=O)NCC(N)=O)C(C)C (HELM PEPTIDE1{[O=C(OCc1ccccc1)[*:2]].R.L.V.[O=C(NN[*:1])[*:2]].A.G.[am]}$$$$V2.0)
17 nM | 72 nM |  |  | 13 nM | CC[C@H](C)[C@H](NC(=O)NNC(=O)[C@@H](NC(=O)[C@H](CC(C)C)NC(=O)[C@H](CCCN=C(N)N)NC(=O)OCc1ccccc1)C(C)C)C(=O)N[C@H](C(=O)N[C@@H](Cc1c[nH]c2ccccc12)C(N)=O)C(C)C (HELM PEPTIDE1{[O=C(OCc1ccccc1)[*:2]].R.L.V.[O=C(NN[*:1])[*:2]].I.V.W.[am]}$$$$V2.0)
0.56 nM | 2.13 nM |  |  | 0.12 nM | CC(C)C[C@H](NC(=O)[C@H](CCCNC(=N)N)NC(=O)OCc1ccccc1)C(=O)N[C@H](C(=O)NNC(=O)N[C@H](C(=O)N[C@@H](C)C(N)=O)C(C)C)C(C)C (HELM PEPTIDE1{[O=C(OCc1ccccc1)[*:2]].R.L.V.[O=C(NN[*:1])[*:2]].V.A.[am]}$$$$V2.0)
100 nM | 100 nM |  |  | 43 nM | CC(C)C[C@H](NC(=O)[C@H](CCCNC(=N)N)NC(=O)OCc1ccccc1)C(=O)N[C@H](C(=O)NNC(=O)N[C@@H](Cc1c[nH]c2ccccc12)C(=O)N[C@H](C(=O)N[C@@H](C)C(N)=O)C(C)C)C(C)C (HELM PEPTIDE1{[O=C(OCc1ccccc1)[*:2]].R.L.V.[O=C(NN[*:1])[*:2]].W.V.A.[am]}$$$$V2.0)

SMILES | Ki (Papain) | Ki (Cathepsin K) | NA (Papain (Carica papaya)) | NI (Papain (Carica papaya)) | Ki (Cathepsin B)
CC(C)C[C@H](N)C(=O)N[C@H](C(=O)NNC(=O)N[C@H](C(=O)OCc1ccccc1)C(C)C)C(C)C (HELM PEPTIDE1{L.V.[O=C(NN[*:1])[*:2]].V.[c1ccc(CO[*:1])cc1]}$$$$V2.0) |  |  |  | inactive | 
